Data reported in patent EP0305646B1, “3-Hydroxypyrid-4-ones and pharmaceutical compositions” (BRITISH TECHNOLOGY GROUP LIMITED, priority 1983, dated 1984).
Read-outs that look alike come from different tables or passages of the source.

How the values were obtained:
[1] = Partition coefficient Kpart between n-octanol and aqueous tris hydrochloride, by spectrophotometry; conditions: n-octanol / tris hcl, pH 7.4
Procedure: The partition coefficient Kpart being the ratio (concentration of compound in n-octanol)/)concentration of compound in aqueous phase) on partition between n-octanol and aqueous tris hydrochloride (20 mM, pH 7.4), is measured by spectrophotometry at 20°C for various of the compounds of the previous Examples and for their 3:1 iron(III) complexes at (10^-4M by spectrophotometry. The solutions of the complexes are either produced by dissolving the pre-formed complex in the aqueous tris hydrochloride or are prepared in situ in the buffer by the admixture of a 3:1 molar ratio of the pyridone and ferric chloride, the pH thereafter being readjusted to 7.4 if necessary (the same product will be obtained in the buffer solution irrespective of whether the pyridone used is in a salt form or not). Acid washed glassware is used throughout and, following mixing of 5 ml of the 10^-4M aqueous solution with 5 ml n-octanol for 1 minute, the aqueous n-octanol mixture is centrifuged at 1,000 g for 30 seconds. The two resulting phases are separated for a concentration determination by spectrophotometry on each. For the free hydroxypyridones, the range 220-240 nm is used for concentration determinations whilst for the iron complexes, the range 340-360 nm is used.

Horse spleen ferritin [2] = target: T1, Horse spleen ferritin (Equus caballus, UniProt P02791+Q8MIP0); test: Mobilisation of iron from ferritin (dialysis against a pyridone solution); format: biochemical; conditions: ferritin 10^-6 M, pH 7.4, 3 x 10^-3 M pyridone
T1 construct: Horse spleen ferritin (Sigma) was used without further purification; purchased Sigma; host or cells: horse spleen (tissue-derived)
T1 sequence (P02791 2-175 limits assumed): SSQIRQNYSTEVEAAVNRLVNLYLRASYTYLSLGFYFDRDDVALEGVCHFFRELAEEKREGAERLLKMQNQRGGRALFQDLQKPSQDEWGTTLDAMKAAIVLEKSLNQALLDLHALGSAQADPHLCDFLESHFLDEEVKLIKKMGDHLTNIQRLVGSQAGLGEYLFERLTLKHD
T1 sequence (Q8MIP0 whole entry): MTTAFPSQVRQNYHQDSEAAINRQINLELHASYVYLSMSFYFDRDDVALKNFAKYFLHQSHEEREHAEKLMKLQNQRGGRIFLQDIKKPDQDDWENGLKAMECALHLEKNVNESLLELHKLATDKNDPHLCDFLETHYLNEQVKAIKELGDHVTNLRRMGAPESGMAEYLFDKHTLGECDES
Procedure: Horse spleen ferritin (Sigma) was used without further purification and its iron content was estimated spectrophotometrically at 420 nm. The ferritin solution in phosphate buffered saline (Dulbecco-OXOID, 10^-6 M, pH 7.4) was enclosed in a Visking dialysis tube and dialysed against a 3 x 10^-3 M buffered solution of one of various pyridones as indicated in Table 2. The absorption spectrum of the resulting iron (III) complex in the dialysis solution was recorded after 6 and 24 hours. For comparative purposes, the procedure was repeated using a blank control.
The results are shown in Table 2 where the percentage of ferritin-bound iron removed by the compound under test is shown. For comparative purposes, results reported in the literature for similar tests with 1 x 10^-3 M desferrioxamine (Crichton et al., J. Inorganic Biochem., 1980, 13, 305) and with 6 x 10^-3 M LICAMS (Tufano et al., Biochem. Biophys. Acta, 1981, 668, 420) are also given in the Table. It will be seen that the pyridone compounds are able to remove iron effectively from ferritin in contrast with desferrioxamine and LICAMS (although the latter will remove iron in the presence of ascorbic acid such a mixture is very difficult to manage clinically). […]

Human transferrin = target: T2, Human transferrin (Homo sapiens, UniProt P02787); test: Mobilisation of iron from 59Fe-loaded transferrin; format: biochemical; conditions: 59Fe transferrin 10^-5 M, compound 4 x 10^-3 M in tris HCl (0.1 M, pH 7.4); for Percentage of iron removed 4 hours: incubation 4 hours; for Percentage of iron removed 18 hours: incubation 18 hours
T2 construct: purchased Sigma
T2 sequence (P02787 20-698): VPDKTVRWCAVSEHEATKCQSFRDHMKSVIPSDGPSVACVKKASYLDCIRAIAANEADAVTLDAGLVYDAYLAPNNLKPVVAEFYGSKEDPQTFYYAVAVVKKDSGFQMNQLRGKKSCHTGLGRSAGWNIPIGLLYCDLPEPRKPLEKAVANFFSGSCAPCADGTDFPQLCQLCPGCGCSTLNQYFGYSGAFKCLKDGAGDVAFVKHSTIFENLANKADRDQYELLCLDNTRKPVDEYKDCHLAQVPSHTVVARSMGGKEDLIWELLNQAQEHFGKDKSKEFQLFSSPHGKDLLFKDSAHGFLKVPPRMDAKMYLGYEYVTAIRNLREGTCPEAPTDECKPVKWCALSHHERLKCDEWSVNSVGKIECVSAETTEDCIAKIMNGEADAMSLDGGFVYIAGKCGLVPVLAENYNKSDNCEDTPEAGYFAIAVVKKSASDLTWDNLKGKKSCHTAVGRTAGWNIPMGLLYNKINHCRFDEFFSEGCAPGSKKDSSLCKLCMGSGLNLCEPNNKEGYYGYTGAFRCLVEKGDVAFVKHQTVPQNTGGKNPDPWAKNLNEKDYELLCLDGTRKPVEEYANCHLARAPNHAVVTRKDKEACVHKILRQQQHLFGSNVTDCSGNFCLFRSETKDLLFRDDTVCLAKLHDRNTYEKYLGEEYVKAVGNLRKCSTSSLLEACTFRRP
Procedure: Human transferrin (Sigma) was loaded with iron (III) by the method of Bates and Schlaback. J. Biol. Chem. (1973) 248, 3228. ^59Iron (III) transferrin (10^-5 M) was incubated with a 4 x 10^-3 M solution in tris HCl (0.1 M, pH 7.4) of one of various pyridones as indicated in Table 3 for periods of 4 hours and 18 hours. The solution was then dialysed against phosphate buffered saline for 24 hours. The ^59Fe remaining in the dialysis tube was then recorded. For comparative purposes, this procedure was repeated with desferrioxamine using incubation for both 4 hours and 18 hours and with EDTA using incubation for 4 hours only.
The results are shown in Table 3 in terms of the percentage of transferrin bound iron removed by the compound under test. It will be seen that the pyrid-4-one compounds are very effective at iron removal, as compared with desferrioxamine or EDTA, after only 4 hours.

Horse spleen ferritin [3] = target: T1, Horse spleen ferritin; conditions: cited from earlier work
Mice = test: In vivo iron binding capacity: excretion of 59Fe in iron dextran loaded mice; conditions: 10 mg per mouse, control = 100%
Procedure: Mice were injected intraperitoneally with iron dextran (2 mg) at weekly intervals over a four week period. Two weeks after the final injection, the mice were injected via the tail vein with ^59Fe lactoferrin (human lactoferrin, 1 mg per injection 2 µCi). The mice were then caged individually. After a ten day period, 1-acetyl-3-hydroxypyrid-2-one was administered to groups of 8 mice at 10 mg per mouse either intraperitoneally or intragastrically (in each case 3 of the mice received only one dose whilst 5 received 2 doses at a 24 hour interval). The excretion of iron was recorded at either 12 or 24 hourly intervals over a three day period before and a two day period after administration of the compound. For comparative purposes, the procedure was repeated with a blank control and with desferrioxamine, also at 10 mg per mouse (the intraperitoneally treated mice receiving one dose of desferrioxamine and the intragastrically treated mice two doses at a 24 hour interval).
The results are shown in Table 4, being given on the basis of the control representing 100% excretion, and illustrate the particular advantage of the pyridones as compared with desferrioxamine for oral administration the levels of iron excreted on intragastric administration being higher for all the pyridones tested than for desferroxamine. […] However, this is not the case here, the large SD values being a consequence of the large range among the positive responses.

[4] = Affinity for iron (III) expressed as log Ksol; format: physicochemical; conditions: > 6.0 needed to remove iron from transferrin
Source text: In order to solubilise iron (III) hydroxide, log Ksol must be greater than 0 and in order to remove iron from transferrin, log Ksol should be in excess of 6.0. The log Ksol values for 1,2-dimethyl-3-hydroxypyrid-4-one, by way of example, is 9.5, thus comparing favourably with those of the bidentate hydroxamates at about 4.0, of catechols at about 8.0, of desferrioxamine at 6.0, and of diethylenetriamine penta-acetic acid (DTPA) at 2.0. Moreover, the ability of the compounds to remove iron efficiently has been confirmed both by in vitro test and also by in vivo tests in mice. It is particularly significant that these latter tests are successful whether the compound is given intraperitoneally or orally by stomach tube, the compounds generally either being stable under acidic conditions or being converted thereby to acid stable active compounds.

Compound | Percentage of iron removed 6 hours (Horse spleen ferritin [2]) [%] | Percentage of iron removed 24 hours (Horse spleen ferritin [2]) [%] | Percentage of iron removed 4 hours (Human transferrin) [%] | Percentage of iron removed 18 hours (Human transferrin) [%] | Excretion of ^59Fe±SD percent (Mice; Intraperitoneal Administration) [%] | log Ksol [4] | also measured
Cn1cc(O)c(=O)cc1CO [3-hydroxy-6-hydroxymethyl-1-methylpyrid-4-one] | 25 | 49 | 93 | 97 | – | – | logD [1]: -1.52
O=C(NCCCCN(CCCNC(=O)c1cc(S(=O)(=O)O)cc(O)c1O)C(=O)c1cc(S(=O)(=O)O)cc(O)c1O)c1cc(S(=O)(=O)O)cc(O)c1O [LICAMS] | – | – | – | – | – | – | Percentage of iron removed 6 hours (Horse spleen ferritin [3]; 6 mM LICAMS + 12 mM ascorbic acid, literature (Tufano et al.)): 7%; Percentage of iron removed 6 hours (Horse spleen ferritin [3]; 6 mM LICAMS, literature (Tufano et al.)): 0%
CC(=O)N(O)CCCCCNC(=O)CCC(=O)N(O)CCCCCNC(=O)CCC(=O)N(O)CCCCCN [Desferrioxamine, reference compound] | – | – | 17 | 22 | 414 ± 100 | 6.0 | Excretion of ^59Fe±SD percent (Mice; Intragastric Administration): 88 ± 17%; Percentage of iron removed 6 hours (Horse spleen ferritin [3]; 1 mM desferrioxamine, literature (Crichton et al.)): 1.5%
Cc1c(O)c(=O)ccn1CCO [3-hydroxy-1-(2'-hydroxyethyl)-2-methylpyrid-4-one] | 31 | 49 | 94 | 96 | 170 ± 49 | – | –
Cc1c(O)c(=O)ccn1C [1,2-dimethyl-3-hydroxypyrid-4-one] | – | – | – | – | – | 9.5 | –
Cc1c(O)c(=O)ccn1CCCCCO [3-hydroxy-1-(5'-hydroxypentyl)-2-methylpyrid-4-one] | – | – | – | – | 149 ± 59 | – | Excretion of ^59Fe±SD percent (Mice; Intragastric Administration): 111 ± 22%
COC(=O)CCn1ccc(=O)c(O)c1C [3-hydroxy-1-(2'-methoxycarbonylethyl)-2-methylpyrid-4-one] | 22 | 45 | – | – | – | – | –
O=C(O)CN(CCN(CC(=O)O)CC(=O)O)CC(=O)O [EDTA, ethylenediamine tetra-acetic acid, reference compound] | – | – | 27 | 67 | – | – | –
O=C(O)CN(CCN(CC(=O)O)CC(=O)O)CCN(CC(=O)O)CC(=O)O [DTPA, diethylenetriamine penta-acetic acid] | – | – | – | – | – | 2.0 | –
